For data set [1], the system named is vincristine induced neuropathy. The experiment in a line: Morphometric analysis of sciatic nerve in vincristine-treated rats. It counts as in vivo, rat. To be noted: vincristine alone. The method, then: Histomorphometric analyses were carried out as described in Example 18 at the completion of the experiments, to explore morphologic changes occurring in fiber and axon diameter and myelin thickness in rats treated with vincristine and in rats co-administrated with IL-6.
With vincristine, morphometric analysis was performed 2 week after the end of vincristine administration on 3 animals per group. The animals were anesthetized by IP injection of 100 mg/kg Imalgène 500®. A 5 mm segment of sciatic nerve was excised, fixed overnight with 4% glutaraldehyde (Sigma, L'Isle d'Abeau-Chesnes, France) in phosphate buffered saline (PBS) (pH=7.4) and maintained in 30% sucrose and stored at 4° C. until further processing. At the time of use, the nerve sample was post-fixed in 1% osmium tetroxide (Sigma, L'Isle d'Abeau-Chesnes, France) in PBS for 2 h, dehydrated in serial alcohol solution, and embedded in Epon. Embedded tissues were then placed at 70° C. during 3 days to allow polymerization of the tissue wax. Cross sections of 1.5 μm thick were performed and they were stained with a 1% toluidine blue solution (Sigma, L'Isle d'Abeau-Chesnes, France) for 2 min, dehydrated and mounted on Eukitt. Twelve sections per sample were examined using an optical microscope (Nikon, Tokyo, Japan) and analyzed using, a semi-automated digital image analysis software (Biocom, France). The fiber diameter (a), axon diameter (b), and myelin thickness (c) were measured as illustrated below.

For data set [2], the system named is breast (MCF7) tumor cell line. Nature of the data set: Cell survival by acid phosphatase activity assay, MCF7. To be noted: cisplatin (2.5 μM), carboplatin (25 μM), 4 days. Type of data set: cell-based, human. The method, then: (§1) The human lung (SK-MES1) and breast (MCF7) tumor cell lines were obtained from ATCC. The cell lines were maintained in Dulbecco's MEM medium (Gibco; Invitrogen, Cergy-Pontoise, France, ref. 41965039) supplemented with 1% antibiotic/antimicotic mixture solution (Gibco, ref. 15240062), and 10% heat-inactivated foetal bovine serum (Gibco, ref. F7524, batch 92K3387). The cells were amplified in Nunc tissue culture flasks (80 cm2) in a humidified incubator at 37° C. with 5% CO2 in 95% air. Cultures were sub-cultured twice a week.
(§2) The enzymatic activity has been proven to be proportional to the number of living cells (Ueda et al.; 1994).
(§3) Three days after the last replication, tumor cells were seeded in 96 well-plates (TPP, VWR International, Fontenay-sous-bois, France) at a density of 1,500 cells (MCF7 line) or 3,000 cells (SK-MES1 line) per well, in a total volume of 100 μl/well and incubated overnight in a humidified incubator at 37° C. with 5% CO2 in 95% air. […] IL-6 (in buffer solution at 1.8 mg/ml, PH: 7) was immediately added at concentrations of 0, 3, 12, 50 or 200 ng/ml.
(§4) Four days after the initiation of the intoxication, acid phosphatase activity (Example 21) in each cell culture was assessed.
(§5) After removal of the culture medium, cells were rinsed with phosphate-buffered saline (PBS, Gibco, ref. 14190-094) and further incubated for 90 min at 37° C. in 100 μl of buffer containing 0.1 mol/l sodium acetate (pH 5.5), 0.1% Triton X100 (Sigma, ref. T9284) and 10 mmol/l p-nitrophenyl phosphate (Sigma, ref. N9389). Reaction was stopped by addition of 10 μl of 1 mol/l sodium hydroxide aqueous solution (Laboratoire de Produit Chimiques de la Robertsau, Strasbourg, France; ref. 28.252.293). Absorbance of the colored solution was measured at 405 nm in a microplate reader (Labsystems Multiskan Bichromatic, EST-LAB, Strasbourg, France).
(§6) The results were expressed as percentage of optical density of the control cell cultures. The heights of the columns represent mean±SEM of percentages of 5-6 wells from two independent cultures.

The nature of data set [3]: Body weight in vincristine induced neuropathy rat model. To be noted: vincristine 0.15 mg/kg, vehicle-treated.
Procedure: The experiments were carried out employing 10 weeks-old female Dark Agouti rats (Janvier, Le Genest-St-Isle, France). […] 4-MC is a standard compound with an established neuroprotective action, used at the dose of 10 μg/kg (n=10).
Vincristine (Tocris, Illkirch, France) was administered by an injection of a vincristine solution from day 0 to 5, from day 8 to 12 and from day 15 to 16 at a dose of 0.15 mg/kg. A vincristine solution (0.03 mg/ml) was prepared in saline.
IL-6 was diluted in saline containing 0.02% BSA and was administered via subcutanuous route every day from the first day of vincristine administration until the end of the experiment.
In data set [4] the test system is vincristine induced neuropathy. Nature of the data set: Electromyography (EMG) in vincristine-treated rats. It counts as in vivo, rat. To be noted: vincristine alone. As for the experimental part: In parallel to behavioral tests, electrophysiological test as described in Example 17, were carried out to evaluate fiber/nerve function in vincristine-administered rats vis-à-vis rats co-administrated with IL-6.
Electrophysiological recordings were performed using a Neuromatic 2000M electromyograph (EMG) (Dantec, Les Ulis, France). Rats were anaesthetized by IP injection of 60 mg/kg ketamine chlorhydrate (Imalgene 500®, Rhône Merieux, Lyon, France). The normal body temperature was maintained around […] with a heating lamp and verified using a contact thermometer (Quick, Bioblock Scientific, Illkirch, France) placed on the tail surface.
Compound muscle action potential (CMAP) of M wave signal (or electrically evoked muscle potential) was recorded in the gastrocnemius muscle after stimulation of the sciatic nerve. M wave reflects the current developed during the action potential of muscle fibers. A reference electrode and an active needle were placed in the hind paw. A ground needle was inserted on the lower back of the rat. Sciatic nerve was stimulated with a single 0.2 ms pulse at supramaximal intensity. The […] of the motor wave was recorded and expressed in ms.
Sensitive nerve conduction velocity (SNCV) was also recorded. The tail skin electrodes were placed as follows: a reference needle inserted at the base of the tail and an anode needle placed 30 mm away from the reference needle toward the extremity of the tail. A ground needle electrode was inserted between the anode and reference needles. The caudal nerve was stimulated with a series of 20 pulses (for 0.2 ms) at an intensity of 12.8 mA. The velocity was expressed in m/s.
H-wave reflex was recorded in the hind footpad muscle after stimulation of the sciatic nerve. A reference electrode and a ground needle were placed on the lower back of the rat. The sciatic nerve was stimulated with a single 0.2 ms pulse at supramaximal intensity. The amplitude (mV) of H wave and the proportion of animal lacking H wave response were the parameters studied.

The subject of data set [5] is vincristine induced neuropathy. The experiment in a line: Hot plate test in vincristine-treated rats. It counts as in vivo, rat. To be noted: vincristine alone; significant at 3 and 5 weeks. As for the experimental part: The rat was placed inside a glass cylinder of 17 cm height and 21 cm diameter on a heating-plate maintained at 52° C. (Medite OTS 40, Microm, Francheville, Rhône, France). The animal behavior was observed, particularly the licking of a foot and the adjusted leap. The latency before licking a foot or before jumping to escape the heat (adjusted leap) was recorded. The time needed to feel the thermal pain is related to the thermal sensitivity and tends to increase when thermal sensitivity is altered.

In data set [6] the test system is vincristine induced neuropathy. Nature of the data set: Walking test (motor coordination) in vincristine-treated rats. It counts as in vivo, rat. To be noted: vincristine alone; after 2 and 3 weeks. The method, then:
The motor coordination was assessed using walking test, which consists at measuring the time taken by a rat placed at one extremity of a 100 cm-long horizontal wooden rod of 5.5 cm diameter, 40 cm above the table, to cover a distance of 1 m on this rod. Three tests (maximum duration: 60 s each) were performed, and the mean value was calculated and retained as characteristic value. If the animal fell down, it was scored with a maximum of 60 s.

For data set [7], the system named is lung (SK-MES1) tumor cell line. The experiment in a line: Cell survival by acid phosphatase activity assay, SK-MES1. To be noted: cisplatin (2.5 μM), carboplatin (25 μM), 4 days. Type of data set: cell-based, human. The method, then: as §1, §2, §3, §4, §5, §6
Data set [8] relates to vincristine induced neuropathy. Nature of the data set: Hindpaw skin biopsy, density of dermal nerve fibers in vincristine-treated rats. Type of data set: in vivo, rat. To be noted: vincristine intoxication.
Procedure: A 5-10 mm diameter area of skin was punch-biopsied from the hindpaw. Skin samples were immediately fixed overnight in paraformaldehyde at 4° C., incubated (overnight) in 30% sucrose in 0.1 M PBS for cryoprotection, embedded in OCT and frozen at −80° C. until cryocut. 50 μm-thick cryosections were then cut vertical to the skin surface with a cryostat. Free-floating sections were incubated for 7 days in a bath of rabbit anti-protein gene product 9.5 (1:10000; Ultraclone, Isle of Man, UK) at 4° C. The sections were then processed to reveal immunoreactivity according to the ABC peroxidase method. Briefly, they were incubated in for 1 hr with biotinylated anti-goat antibody (1:200), then 30 min in the avidin biotinylated complex at room temperature. Peroxidase activity was visualized using DAB system. Sections were then counterstained with eosin or hematoxylin. Sections were dehydrated, cleared with bioclear and mounted on eukitt. The number of dermal nerves of 3 microscope fields was counted manually under 40 magnification view.
The subject of data set [9] is CIPN caused by carboplatin/paclitaxel. To be noted: 2 or 4 μg/kg sub coetaneous daily for 7 days; cited from earlier work.

For `CC[C@]1(O)C[C@H]2CN(CCc3c([nH]c4ccccc34)[C@@](C(=O)OC)(c3cc4c(cc3OC)N(C=O)[C@H]3[C@@](O)(C(=O)OC)[C@H](OC(C)=O)[C@]5(CC)C=CCN6CC[C@]43[C@@H]65)C2)C1` [vincristine], in data set [1], the axon diameter result is given as “significantly decreases”, the “myelin thickness versus control” value is listed as “significantly reduced”, the “percentage of degenerated fibers versus control” value was “two times higher” and the “percentage of myelinated fibers versus control” value is given as “less than that in the control non-treated group”. In addition, the “sciatic nerve fiber diameter versus control” value in data set [1] is reported as “significant decrease in fiber diameter”. In addition, in data set [2], the “decrease in cell survival versus control” value is listed as “about 50%”. In data set [3], the “body weight lost at completion of vincristine administration” value is reported as “about 10%”. The “loss of M wave amplitude versus control” value in data set [4] (2 weeks) is given as “about 20%”. The “loss of SNCV” value in [4] (5 weeks after treatment initiation) is listed as “about 10 m/s”. The “hot plate first reaction to heat versus control” value in data set [5] is on record as “delayed first reaction to heat”. In data set [6], the “walking test performance versus non-treated controls” value was “significantly reduced”. For the same molecule, the “decrease in cell survival versus control” value in [7] is listed as “about 50%”. In addition, the “decrease in the density of epidermal nerve fibers” value in [8] was “more than 50%”.
As for “LIF: Recombinant leukemia inhibitor factor (LIF), another gp130 activator”, the “prevention of CIPN” value in data set [9] is “ineffective at preventing CIPN”.

(Values after patent publication US7951359B2, “Compositions and methods for therapy or prevention of chemotherapy-induced neuropathy” (Merck Serono SA, priority 2004, dated 2011).)
